Laboratory results as given in ChEMBL document CHEMBL1124314, “Development of phosphonate derivatives of gadolinium chelates for NMR imaging of calcified soft tissues” (J Med Chem, 1989).

Assays:
Rattus norvegicus [1] = species on record: Rattus norvegicus; test: Uptake of [GD] in bone 1 hr post injection with 0.01 (N) of the compound
Rattus norvegicus [2] = species on record: Rattus norvegicus; test: Biodistribution in rat muscle in the presence of NCAGd/0.01 M lig; assay type: ADME, organism-based, Muscle tissue; conditions: in vivo
Rattus norvegicus [3] = species on record: Rattus norvegicus; test: Biodistribution in rat kidney in the presence of NCAGd/0.01 M lig; assay type: ADME, organism-based; conditions: in vivo
Rattus norvegicus [4] = species on record: Rattus norvegicus; test: Uptake of [GD] in bone 1 h post injection with 0.01 of the compound; assay type: functional, Bone element
[5] = Ratio of uptake of [GD] in bone 1 hr post injection with 0.01 (N) to that of blood
[6] = Ratio of uptake of [GD] in bone 1 hr post injection with NCA GD dose to that of muscle; assay type: functional
[7] = Ratio of uptake of [GD] in bone 1 hr post injection with 0.01 (N) to that of muscle
Rattus norvegicus [8] = species on record: Rattus norvegicus; test: Uptake of [GD] in bone 1 hr post injection with NCA GD dose; assay type: functional, Bone element
Rattus norvegicus [9] = species on record: Rattus norvegicus; test: Biodistribution in rat heart in the presence of NCAGd/0.01 M lig; assay type: ADME, organism-based; conditions: in vivo
Rattus norvegicus [10] = species on record: Rattus norvegicus; test: Biodistribution in rat spleen in the presence of NCAGd/0.01 M lig; assay type: ADME, organism-based; conditions: in vivo
Rattus norvegicus [11] = species on record: Rattus norvegicus; test: Biodistribution in rat bone in the presence of NCAGd/0.01 M lig; assay type: ADME, organism-based, Bone element; conditions: in vivo
Rattus norvegicus [12] = species on record: Rattus norvegicus; test: Biodistribution in rat liver by in the presence of NCAGd/0.01 M lig; assay type: ADME, organism-based; conditions: in vivo
Rattus norvegicus [13] = species on record: Rattus norvegicus; test: Biodistribution in rat blood in the presence of NCAGd/0.01 M lig; assay type: ADME, organism-based; conditions: in vivo
[14] = Ratio of uptake of [GD] in bone 1 hr post injection with 0.01 to that of muscle; assay type: functional
Rattus norvegicus [15] = species on record: Rattus norvegicus; test: Uptake of [GD] in bone 1 hr post injection with 0.01(A) of the compound; assay type: functional, Bone element
[16] = Ratio of uptake of [GD] in bone 1 hr post injection with 0.01(A) to that of blood; assay type: functional
Rattus norvegicus [17] = species on record: Rattus norvegicus; test: Uptake of [GD] in bone 1 hr post injection with 0.01(N) of the compound; assay type: functional, Bone element
[18] = Ratio of uptake of [GD] in bone 1 hr post injection with 0.01(A) to that of muscle; assay type: functional
[19] = Ratio of uptake of [GD] in bone 1 hr post injection with 0.01(N) to that of muscle; assay type: functional
[20] = Ratio of uptake of [GD] in bone 1 h post injection with 0.01(N) to that of blood; assay type: functional

ID/organ (Rattus norvegicus [2]) [%] | ID/organ (Rattus norvegicus [3]) [%] | ID/organ (Rattus norvegicus [9]) [%] | ID/organ (Rattus norvegicus [10]) [%] | ID/organ (Rattus norvegicus [11]) [%] | ID/organ (Rattus norvegicus [12]) [%] | ID/organ (Rattus norvegicus [13]) [%] | SMILES | ID (Rattus norvegicus [1]) [%] | ID (Rattus norvegicus [4]) [%] | Ratio [5] [%] | Ratio [6] [%] | Ratio [7] [%] | ID (Rattus norvegicus [8]) [%] | Ratio [14] [%] | ID (Rattus norvegicus [15]) [%] | Ratio [16] [%] | ID (Rattus norvegicus [17]) [%] | Ratio [18] [%] | Ratio [19] [%] | Ratio [20]
4.09 | 2.85 | 0.28 | 0.19 | 27.7 | 41 | 7.25 | CC(C)(CO)NCCNC(C)(C)CO | 2.56 | 7.23 | 0.135 | 6.78 | 1.47 | 27.7 | 1.61 |  |  |  |  |  | 
6.09 | 3.57 | 0.34 | 0.135 | 56.8 | 20.9 | 2.35 | OC(CNCCNCC(O)c1ccccc1)c1ccccc1 (stereo not drawn) |  |  |  |  |  | 56.8 |  | 6.37 | 0.139 | 6.36 | 1.6 | 2.14 | 0.188
